# Results published in ChEMBL document CHEMBL5608246, “Membrane-Targeting Amphiphilic Honokiol Derivatives Containing an Oxazole Moiety as Potential Antibacterials against Methicillin-Resistant Staphylococcus aureus” (J Med Chem, 2024).
# Calls of active or inactive are those of the source. The rule behind the calls is not given here.
# Tests used:
# Staphylococcus aureus [1] = assay: Inhibition of methionine synthesis in methicillin resistant Staphylococcus aureus N315 at 4 ug/ml incubated for 4 hrs by RNA-sequencing analysis; assay type: functional, organism-based; conditions: dose 4.0 µg/ml
# Staphylococcus aureus [2] = assay: Effect on ABC transporter protein gene expression in methicillin resistant Staphylococcus aureus N315 at 4 ug/ml incubated for 4 hrs by RNA-sequencing analysis; assay type: functional; conditions: dose 4.0 µg/ml
# Staphylococcus aureus [3] = assay: Bactericidal activity against Staphylococcus aureus ATCC 29213 at 8 times MIC within 6 hrs by time kill assay; assay type: functional, organism-based
# [4] = Toxicity in Kunming mouse skin abscess model infected with methicillin resistant Staphylococcus aureus assessed as heart damage at 5 to 10 mg/kg, sc measured after 2 hrs by H and E staining based assay; assay type: organism-based; conditions: in vivo, dose 5-10 mg/kg
# Staphylococcus aureus [5] = assay: Antibacterial activity against methicillin resistant Staphylococcus aureus 20 infected in Kunming mouse skin abscess model assessed as reduction in inflammatory cell infiltration in subcutaneous layer at 10 mg/kg, sc measured after 2 hrs; assay type: functional, organism-based
# Escherichia coli = assay: Antibacterial activity against Escherichia coli ATCC 25922 incubated for 16 to 18 hrs by broth dilution method; assay type: functional; conditions: time 16-18 hrs
# Staphylococcus aureus [6] = assay: Antibacterial activity against methicillin resistant Staphylococcus aureus M11 incubated for 16 to 18 hrs by broth dilution method; assay type: functional; conditions: time 16-18 hrs
# [7] = Toxicity in Kunming mouse skin abscess model infected with methicillin resistant Staphylococcus aureus assessed as lung damage at 5 to 10 mg/kg, sc measured after 2 hrs by H and E staining based assay; assay type: organism-based; conditions: in vivo, dose 5-10 mg/kg
# Staphylococcus aureus [8] = assay: Antibacterial activity against methicillin resistant Staphylococcus aureus 20 infected in Kunming mouse skin abscess model assessed as reduction in IL-6 level at 5 to 10 mg/kg, sc measured after 2 hrs by ELISA; assay type: functional, organism-based; conditions: dose 5-10 mg/kg
# Staphylococcus aureus [9] = assay: Antibacterial activity against methicillin resistant Staphylococcus aureus M12 incubated for 16 to 18 hrs by broth dilution method; assay type: functional; conditions: time 16-18 hrs
# Cell membrane [10] = assay: Induction of membrane disruption in methicillin resistant Staphylococcus aureus 20 assessed as wrinkled membrane at 16 times MIC incubated for 4 hrs by SEM analysis; assay type: cell membranes
# Staphylococcus aureus [11] = assay: Upregulation of cwrA gene expression in methicillin resistant Staphylococcus aureus N315 at 4 ug/ml incubated for 4 hrs by RNA-sequencing analysis; assay type: functional; conditions: dose 4.0 µg/ml
# Cell membrane [12] = assay: Induction of membrane disruption in methicillin resistant Staphylococcus aureus 20 assessed as viable cells with intact membrane at 16 ug/ml incubated for 2 hrs by SYTO9/PI staining based flow cytometry analysis (reference value: 98.7%); assay type: cell membranes; conditions: dose 16.0 µg/ml
# Staphylococcus aureus [13] = assay: Antibacterial activity against methicillin resistant Staphylococcus aureus 20 infected in Kunming mouse skin abscess model assessed as reduction in abscess size at 5 mg/kg, sc measured after 2 hrs; assay type: functional, organism-based
# [14] = Toxicity in Kunming mouse skin abscess model infected with methicillin resistant Staphylococcus aureus assessed as spleen damage at 5 to 10 mg/kg, sc measured after 2 hrs by H and E staining based assay; assay type: organism-based; conditions: in vivo, dose 5-10 mg/kg
# [15] = Toxicity in Kunming mouse skin abscess model infected with methicillin resistant Staphylococcus aureus assessed as kidney damage at 5 to 10 mg/kg, sc measured after 2 hrs by H and E staining based assay; assay type: organism-based; conditions: in vivo, dose 5-10 mg/kg
# Staphylococcus aureus [16] = assay: Upregulation of gpsB gene expression in methicillin resistant Staphylococcus aureus N315 at 4 ug/ml incubated for 4 hrs by RNA-sequencing analysis; assay type: functional; conditions: dose 4.0 µg/ml
# [17] = Toxicity in Kunming mouse assessed as change in white blood cell counts at 20 mg/kg, sc measured after 24 hrs; assay type: organism-based; conditions: in vivo
# Cell membrane [18] = assay: Induction of membrane depolarization in methicillin resistant Staphylococcus aureus 20 assessed as increase in fluorescence intensity measured at 2 mins interval over 20 mins by DiSC3(5) staining based assay; conditions: dose 16-64 µg/ml
# Staphylococcus aureus [19] = assay: Antibacterial activity against methicillin resistant Staphylococcus aureus 20 infected in Kunming mouse skin abscess model assessed as reduction in inflammatory cells in infection sites at 5 to 10 mg/kg, sc measured after 2 hrs; assay type: functional, organism-based; conditions: dose 5-10 mg/kg
# Cell membrane [20] = assay: Induction of membrane disruption in methicillin resistant Staphylococcus aureus 20 assessed as viable cells with intact membrane at 64 ug/ml incubated for 2 hrs by SYTO9/PI staining based flow cytometry analysis (reference value: 98.7%); assay type: cell membranes; conditions: dose 64.0 µg/ml
# [21] = Toxicity in Kunming mouse assessed as change in creatinine level at 20 mg/kg, sc measured after 24 hrs; assay type: organism-based; conditions: in vivo
# Staphylococcus aureus [22] = assay: Antibacterial activity against methicillin resistant Staphylococcus aureus M16 incubated for 16 to 18 hrs by broth dilution method; assay type: functional; conditions: time 16-18 hrs
# [23] = Toxicity in Kunming mouse assessed as liver abnormalities at 10 mg/kg, sc measured after 24 hrs; assay type: organism-based; conditions: in vivo
# [24] = Toxicity in Kunming mouse assessed as heart abnormalities at 10 mg/kg, sc measured after 24 hrs; assay type: organism-based; conditions: in vivo
# Cell membrane [25] = assay: Induction of membrane disruption in methicillin resistant Staphylococcus aureus 20 assessed as membrane rupture at 16 times MIC incubated for 4 hrs by SEM analysis
# [26] = Toxicity in Kunming mouse assessed as change in hematocrit level at 20 mg/kg, sc measured after 24 hrs; assay type: organism-based; conditions: in vivo
# Staphylococcus aureus [27] = assay: Antibacterial activity against methicillin resistant Staphylococcus aureus M21 incubated for 16 to 18 hrs by broth dilution method; assay type: functional; conditions: time 16-18 hrs
# Staphylococcus aureus [28] = assay: Antibacterial activity against methicillin resistant Staphylococcus aureus 20 incubated for 16 to 18 hrs in presence of 32 ug/ml cardiolipin by checkerboard broth dilution method; assay type: functional; conditions: time 16-18 hrs
# [29] = Toxicity in Kunming mouse assessed as kidney abnormalities at 10 mg/kg, sc measured after 24 hrs; assay type: organism-based; conditions: in vivo
# Staphylococcus aureus [30] = assay: Antibacterial activity against methicillin resistant Staphylococcus aureus M17 incubated for 16 to 18 hrs by broth dilution method; assay type: functional; conditions: time 16-18 hrs
# Staphylococcus aureus [31] = assay: Antibacterial activity against methicillin resistant Staphylococcus aureus M22 incubated for 16 to 18 hrs by broth dilution method; assay type: functional; conditions: time 16-18 hrs
# Staphylococcus aureus [32] = assay: Antibacterial activity against methicillin resistant Staphylococcus aureus M23 incubated for 16 to 18 hrs by broth dilution method; assay type: functional; conditions: time 16-18 hrs
# Cell membrane [33] = assay: Induction of membrane disruption in methicillin resistant Staphylococcus aureus 20 assessed as viable cells with intact membrane at 128 ug/ml incubated for 2 hrs by SYTO9/PI staining based flow cytometry analysis (reference value: 98.7%); assay type: cell membranes; conditions: dose 128.0 µg/ml
# Staphylococcus aureus [34] = assay: Antibacterial activity against methicillin resistant Staphylococcus aureus 20 infected in Kunming mouse skin abscess model assessed as reduction in TNF-alpha level at 5 to 10 mg/kg, sc measured after 2 hrs by ELISA; assay type: functional, organism-based; conditions: dose 5-10 mg/kg
# [35] = Toxicity in Kunming mouse assessed as skin redness at 40 to 80 mg/kg, sc measured after 24 hrs; assay type: organism-based; conditions: in vivo, dose 40-80 mg/kg
# Staphylococcus aureus [36] = assay: Antibacterial activity against methicillin resistant Staphylococcus aureus M14 incubated for 16 to 18 hrs by broth dilution method; assay type: functional; conditions: time 16-18 hrs
# Staphylococcus aureus [37] = assay: Inhibition of lysine synthesis in methicillin resistant Staphylococcus aureus N315 at 4 ug/ml incubated for 4 hrs by RNA-sequencing analysis; assay type: functional, organism-based; conditions: dose 4.0 µg/ml
# Staphylococcus aureus [38] = assay: Upregulation of mspA gene expression in methicillin resistant Staphylococcus aureus N315 at 4 ug/ml incubated for 4 hrs by RNA-sequencing analysis; assay type: functional; conditions: dose 4.0 µg/ml
# Staphylococcus aureus [39] = assay: Inhibition of protein synthesis in methicillin resistant Staphylococcus aureus N315 at 4 ug/ml incubated for 4 hrs by RNA-sequencing analysis; assay type: functional, organism-based; conditions: dose 4.0 µg/ml
compound,measurement,setting,value
C=CCc1cc(-c2ccc(OCCC[N+](C)(C)CC(=O)NCCCC)c(CC=C)c2)c2oc(-c3c(Cl)cccc3Cl)nc2c1.[Br-],inhibition,Staphylococcus aureus [1],Active
same,Activity,Staphylococcus aureus [2],Active
same,Activity,Staphylococcus aureus [3],Active
same,Activity,[4],Non-Toxic
same,Activity,Staphylococcus aureus [5],Active
same,MIC,Escherichia coli,128 µg/mL
same,MIC,Staphylococcus aureus [6],4 µg/mL
same,Activity,[7],Non-Toxic
same,Activity,Staphylococcus aureus [8],Active
same,MIC,Staphylococcus aureus [9],4 µg/mL
same,Activity,Cell membrane [10],Active
same,Activity,Staphylococcus aureus [11],Active
same,Activity,Cell membrane [12],0.17%
same,Activity,Staphylococcus aureus [13],Active
same,Activity,[14],Non-Toxic
same,Activity,[15],Non-Toxic
same,Activity,Staphylococcus aureus [16],Active
same,Activity,[17],Non-Toxic
same,Activity,Cell membrane [18],Dose-Dependent Effect
same,Activity,Staphylococcus aureus [19],Active
same,Activity,Cell membrane [20],0.28%
same,Activity,[21],Non-Toxic
same,MIC,Staphylococcus aureus [22],2 µg/mL
same,Activity,[23],Non-Toxic
same,Activity,[24],Non-Toxic
same,Activity,Cell membrane [25],Active
same,Activity,[26],Non-Toxic
same,MIC,Staphylococcus aureus [27],4 µg/mL
same,MIC,Staphylococcus aureus [28],32 µg/mL
same,Activity,[29],Non-Toxic
same,MIC,Staphylococcus aureus [30],2 µg/mL
same,MIC,Staphylococcus aureus [31],2 µg/mL
same,MIC,Staphylococcus aureus [32],4 µg/mL
same,Activity,Cell membrane [33],0%
same,Activity,Staphylococcus aureus [34],Active
same,Activity,[35],Toxic
same,MIC,Staphylococcus aureus [36],2 µg/mL
same,inhibition,Staphylococcus aureus [37],Active
same,Activity,Staphylococcus aureus [38],Active
same,inhibition,Staphylococcus aureus [39],Active
